According to patent US20110237528A1, “COMPOSITIONS AND METHODS COMPRISING IMIDAZOLE AND TRIAZOLE DERIVATIVES” (INSTITUTE FOR ONEWORLD HEALTH, priority 2008, published 2011):

How the values were obtained:
[1] = target: T1, CFTR in the CHO-CFTR cell line (Homo sapiens, UniProt P13569); assay: CHO-CFTR assay (FLIPR assay, same conditions as T84 assay); assay type: cell-based; conditions: average of at least 2 runs unless marked n = 1
T1 construct: expressed in transfected cells; host or cells: CHO (CHO-CFTR cell line)

[2] = test system: cholera toxin (CTX)-induced net fluid secretion in small intestine loops; design: species or system mice (CD1 strain); conditions: mouse, in vivo

T1 sequence (P13569 whole entry): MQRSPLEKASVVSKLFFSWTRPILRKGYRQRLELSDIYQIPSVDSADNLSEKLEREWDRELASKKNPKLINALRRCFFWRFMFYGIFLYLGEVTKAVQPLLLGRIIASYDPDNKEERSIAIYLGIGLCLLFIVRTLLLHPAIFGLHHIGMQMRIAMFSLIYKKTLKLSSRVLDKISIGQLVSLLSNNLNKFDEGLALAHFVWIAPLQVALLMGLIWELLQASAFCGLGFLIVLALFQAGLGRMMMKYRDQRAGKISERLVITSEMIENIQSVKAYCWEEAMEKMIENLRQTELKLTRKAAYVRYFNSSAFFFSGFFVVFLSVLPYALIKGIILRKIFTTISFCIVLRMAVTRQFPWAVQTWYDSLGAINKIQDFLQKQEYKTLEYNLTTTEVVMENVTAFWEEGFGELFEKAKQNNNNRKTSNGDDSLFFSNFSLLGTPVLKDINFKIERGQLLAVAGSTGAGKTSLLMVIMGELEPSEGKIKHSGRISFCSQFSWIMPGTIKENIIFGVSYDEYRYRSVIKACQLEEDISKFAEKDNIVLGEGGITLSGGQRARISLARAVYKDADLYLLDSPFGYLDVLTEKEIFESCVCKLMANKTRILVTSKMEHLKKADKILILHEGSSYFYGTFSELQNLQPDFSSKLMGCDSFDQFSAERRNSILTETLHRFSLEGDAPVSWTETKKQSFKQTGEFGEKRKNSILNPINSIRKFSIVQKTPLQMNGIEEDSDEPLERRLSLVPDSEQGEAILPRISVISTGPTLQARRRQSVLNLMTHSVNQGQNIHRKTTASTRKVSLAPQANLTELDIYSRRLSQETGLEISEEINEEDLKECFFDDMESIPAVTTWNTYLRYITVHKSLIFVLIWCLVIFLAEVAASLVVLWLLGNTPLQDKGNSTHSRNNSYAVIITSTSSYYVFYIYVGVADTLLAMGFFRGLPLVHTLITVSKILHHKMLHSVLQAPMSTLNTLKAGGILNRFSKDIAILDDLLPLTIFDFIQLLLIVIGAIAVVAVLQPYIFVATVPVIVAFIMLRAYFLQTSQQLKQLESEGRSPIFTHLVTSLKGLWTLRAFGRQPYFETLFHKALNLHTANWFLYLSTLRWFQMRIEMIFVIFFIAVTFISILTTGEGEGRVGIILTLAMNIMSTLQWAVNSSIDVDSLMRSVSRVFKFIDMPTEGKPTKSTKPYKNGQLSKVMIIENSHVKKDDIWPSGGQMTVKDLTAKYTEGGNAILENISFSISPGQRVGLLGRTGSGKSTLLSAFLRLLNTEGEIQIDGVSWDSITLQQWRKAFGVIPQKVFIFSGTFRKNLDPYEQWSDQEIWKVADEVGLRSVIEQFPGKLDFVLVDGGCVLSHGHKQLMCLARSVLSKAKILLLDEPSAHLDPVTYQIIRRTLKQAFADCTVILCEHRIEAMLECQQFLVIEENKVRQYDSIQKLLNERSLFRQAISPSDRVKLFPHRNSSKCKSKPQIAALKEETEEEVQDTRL

Row | SMILES | IC50 [1] | % inhibition @ 100 μg dose (closed loop % inhibition) [2]
1 | CC(C)(C)CCN(Cc1cccc(OC(F)(F)F)c1)C(=O)c1ncn(-c2cc(Cl)c(O)c(Cl)c2)n1 [Compound 77, 1-(3,5-dichloro-4-hydroxyphenyl)-N-(3,3-dimethylbutyl)-N-(3-(trifluoromethoxy)benzyl)-1H-1,2,4-triazole-3-carboxamide] | ≥ 50 µM | –
2 | O=C(NCc1ccc(Oc2ccccc2)cc1)c1ncn(-c2cc(Cl)c(O)c(Cl)c2)n1 [Compound 49, 1-(3,5-dichloro-4-hydroxyphenyl)-N-(4-phenoxybenzyl)-1H-1,2,4-triazole-3-carboxamide] | – | 42.3%
3 | CC(C)(C)CCN(Cc1cccc(C(F)(F)F)c1)C(=O)c1ncn(-c2cc(Cl)c(O)c(Cl)c2)n1 [Compound 79, 1-(3,5-dichloro-4-hydroxyphenyl)-N-(3,3-dimethylbutyl)-N-(3-(trifluoromethyl)benzyl)-1H-1,2,4-triazole-3-carboxamide] | ≥ 50 µM | –
4 | COCCOCCOCCN(Cc1cccc(OC(F)(F)F)c1)C(=O)c1ncn(-c2cc(Cl)c(O)c(Cl)c2)n1 [Compound 113, 1-(3,5-dichloro-4-hydroxyphenyl)-N-(2-(2-(2-methoxyethoxy)ethoxy)ethyl)-N-(3-(trifluoromethoxy)benzyl)-1H-1,2,4-triazole-3-carboxamide] | ≥ 50 µM | –
5 | Cc1noc(C)c1CCNC(=O)c1ncn(-c2cc(Cl)c(O)c(Cl)c2)n1 [Compound 74, 1-(3,5-dichloro-4-hydroxyphenyl)-N-(2-(3,5-dimethylisoxazol-4-yl)ethyl)-1H-1,2,4-triazole-3-carboxamide] | ≥ 50 µM | –
6 | COCCOCCOCCON(Cc1ccc(Oc2ccccc2)cc1)C(=O)c1ncn(-c2cc(Cl)c(O)c(Cl)c2)n1 [Compound 123, 1-(3,5-dichloro-4-hydroxyphenyl)-N-(2-(2-(2-methoxyethoxy)ethoxy)ethoxy)-N-(4-phenoxybenzyl)-1H-1,2,4-triazole-3-carboxamide] | ≥ 50 µM | –
7 | COCCOCCOCCOCCN(Cc1cccc(OC(F)(F)F)c1)C(=O)c1ncn(-c2cc(Cl)c(O)c(Cl)c2)n1 [Compound 115, 1-(3,5-dichloro-4-hydroxyphenyl)-N-(2,5,8,11-tetraoxatridecan-13-yl)-N-(3-(trifluoromethoxy)benzyl)-1H-1,2,4-triazole-3-carboxamide] | ≥ 50 µM | –
8 | Oc1c(Cl)cc(-n2cnc(C(O)(c3cc(F)cc(F)c3)c3cc(F)cc(F)c3)n2)cc1Cl [Compound 52, 4-(3-(bis(3,5-difluorophenyl)(hydroxy)methyl)-1H-1,2,4-triazol-1-yl)-2,6-dichlorophenol] | – | 55.3%
9 | C=CCN(Cc1ccc(C(C)C)cc1)C(=O)c1ncn(-c2cc(Cl)c(O)c(Cl)c2)n1 [Compound 101, N-allyl-1-(3,5-dichloro-4-hydroxyphenyl)-N-(4-isopropylbenzyl)-1H-1,2,4-triazole-3-carboxamide] | ≥ 50 µM | –
10 | COCCOCCOCCOCCN(Cc1ccc(C(C)(C)C)cc1)C(=O)c1ncn(-c2cc(Cl)c(O)c(Cl)c2)n1 [Compound 120, N-(4-tert-butylbenzyl)-1-(3,5-dichloro-4-hydroxyphenyl)-N-(2,5,8,11-tetraoxatridecan-13-yl)-1H-1,2,4-triazole-3-carboxamide] | ≥ 50 µM | –
11 | O=C(c1ncn(-c2cc(Cl)c(O)c(Cl)c2)n1)N(Cc1ccccc1)Cc1cccc(OC(F)(F)F)c1 [Compound 84, N-benzyl-1-(3,5-dichloro-4-hydroxyphenyl)-N-(3-(trifluoromethoxy)benzyl)-1H-1,2,4-triazole-3-carboxamide] | ≥ 50 µM | –
12 | CON(Cc1ccc(C(C)C)cc1)C(=O)c1ncn(-c2cc(Cl)c(O)c(Cl)c2)n1 [Compound 128, 1-(3,5-dichloro-4-hydroxyphenyl)-N-(4-isopropylbenzyl)-N-methoxy-1H-1,2,4-triazole-3-carboxamide] | ≥ 50 µM | –
13 | COCCOCCOCCOCCOCCOCCOCCOCCON(Cc1ccc(Oc2ccccc2)cc1)C(=O)c1ncn(-c2cc(Cl)c(O)c(Cl)c2)n1 [Compound 121, N-(2,5,8,11,14,17,20,23-octaoxapentacosan-25-yloxy)-1-(3,5-dichloro-4-hydroxyphenyl)-N-(4-phenoxybenzyl)-1H-1,2,4-triazole-3-carboxamide] | ≥ 50 µM | –
14 | O=C(NCc1ccc(Cl)c(Cl)c1)c1ncn(-c2cc(Cl)c(O)c(Cl)c2)n1 [Compound 37, 1-(3,5-dichloro-4-hydroxyphenyl)-N-(3,4-dichlorobenzyl)-1H-1,2,4-triazole-3-carboxamide] | – | 76.9%
15 | O=C(NCCC(c1ccccc1)c1ccccc1)c1ncn(-c2cc(Cl)c(O)c(Cl)c2)n1 [Compound 31, 1-(3,5-dichloro-4-hydroxyphenyl)-N-(3,3-diphenylpropyl)-1H-1,2,4-triazole-3-carboxamide] | – | 45.1%
16 | O=C(c1ncn(-c2cc(Cl)c(O)c(Cl)c2)n1)N(Cc1ccccc1)Cc1cccc(C(F)(F)F)c1 [Compound 85, N-benzyl-1-(3,5-dichloro-4-hydroxyphenyl)-N-(3-(trifluoromethyl)benzyl)-1H-1,2,4-triazole-3-carboxamide] | ≥ 50 µM | –
17 | CC(C)(C)c1ccc(CN(CCOCCOCCOCCOCCOCCOCc2ccccc2)C(=O)c2ncn(-c3cc(Cl)c(O)c(Cl)c3)n2)cc1 [Compound 116, N-(4-tert-butylbenzyl)-1-(3,5-dichloro-4-hydroxyphenyl)-N-(1-phenyl-2,5,8,11,14,17-hexaoxanonadecan-19-yl)-1H-1,2,4-triazole-3-carboxamide] | ≥ 50 µM | –
18 | COCCOCCOCCOCCOCCOCCOCCOCCN(Cc1ccc(C(C)(C)C)cc1)C(=O)c1ncn(-c2cc(Cl)c(O)c(Cl)c2)n1 [Compound 117, N-(4-tert-butylbenzyl)-1-(3,5-dichloro-4-hydroxyphenyl)-N-(2,5,8,11,14,17,20,23-octaoxapentacosan-25-yl)-1H-1,2,4-triazole-3-carboxamide] | ≥ 50 µM | –
19 | O=C(NCc1ccc(Oc2ccc(F)c(C(F)(F)F)c2)cc1)c1ncn(-c2cc(Cl)c(O)c(Cl)c2)n1 [Compound 67, 1-(3,5-dichloro-4-hydroxyphenyl)-N-(4-(4-fluoro-3-(trifluoromethyl)phenoxy)benzyl)-1H-1,2,4-triazole-3-carboxamide] | – | 88.2%
20 | COCCOCCOCCOCCOCCN(Cc1ccc(C(C)(C)C)cc1)C(=O)c1ncn(-c2cc(Cl)c(O)c(Cl)c2)n1 [Compound 118, N-(4-tert-butylbenzyl)-1-(3,5-dichloro-4-hydroxyphenyl)-N-(2,5,8,11,14-pentaoxahexadecan-16-yl)-1H-1,2,4-triazole-3-carboxamide] | ≥ 50 µM | –
21 | COCCOCCOCCOCCON(Cc1ccc(Oc2ccccc2)cc1)C(=O)c1ncn(-c2cc(Cl)c(O)c(Cl)c2)n1 [Compound 122, N-(2,5,8,11-tetraoxatridecan-13-yloxy)-1-(3,5-dichloro-4-hydroxyphenyl)-N-(4-phenoxybenzyl)-1H-1,2,4-triazole-3-carboxamide] | ≥ 50 µM | –
22 | O=C(NC(c1ccccc1)c1ccccc1)c1ncn(-c2cc(Cl)c(O)c(Cl)c2)n1 [Compound 2, N-benzhydryl-1-(3,5-dichloro-4-hydroxyphenyl)-1H-1,2,4-triazole-3-carboxamide] | – | 42.9%
23 | COCCOCCOCCOCCN(Cc1ccc(Cl)c(Cl)c1)C(=O)c1ncn(-c2cc(Cl)c(O)c(Cl)c2)n1 [Compound 111, 1-(3,5-dichloro-4-hydroxyphenyl)-N-(3,4-dichlorobenzyl)-N-(2,5,8,11-tetraoxatridecan-13-yl)-1H-1,2,4-triazole-3-carboxamide] | ≥ 50 µM | –
24 | CC(C)c1ccc(CC(NC(=O)c2ncn(-c3cc(Cl)c(O)c(Cl)c3)n2)C(=O)C(C)(C)C)cc1 (stereo not drawn) [Compound 134, 1-(3,5-dichloro-4-hydroxyphenyl)-N-(1-(4-isopropylphenyl)-4,4-dimethyl-3-oxopentan-2-yl)-1H-1,2,4-triazole-3-carboxamide] | – | 71.7%
